Where no end group is shown, it is not given here.
Test system: allergen specific T cells
Assay: T cell proliferation assay (72 h) on donor derived T cell lines (TCL02/TCL03)
Format: cell-based, human
Details: for Proliferation % donor coverage (TCL-02 DK1): T cell lines TCL-02 DK1, 30 donors, hit criteria SI>=2, CPM>=1000; for Proliferation strength (TCL-02 DK1): T cell lines TCL-02 DK1, strength of response (average relative magnitude); for donor coverage of homologue peptide compared with native Phleum peptide / T cell coverage of modified peptide compared to the parent peptide: 2 μg/ml; for donor coverage of homologue peptide compared with native Phleum peptide: TCL-02 DK-2, 21 donors; for T cell coverage of modified peptide compared to the parent peptide: TCL03-DK1 and DK2, 27 donors; for average relative magnitude: reference peptides of WO2010/089554, proliferation only
Excerpt: Isolated PBMCs (peripheral blood mononuclear cells) obtained from the donors described in Example 2 were CD8 depleted and the T cell lines were established by stimulating the cultures with nPhl p1, mix of nPhl p 2 and […] 5 and […] established for each of the donors tested by stimulating with the mixture of above listed allergens. Grass allergic donors were recruited (cohort DK1 including 30 grass allergic individuals, DK2 including 24 grass allergic individuals and US1 including 15 grass allergic individuals). PBMCs were isolated from freshly drawn heparinized blood by gradient centrifugation on lymphoprep (Nycomed, Norway), washed twice and re-suspended in RPMI 1640 medium with HEPES and ultraglutamine (Cambrex, Belgium) supplemented with 5% v/v human AB-serum (Cambrex, Belgium), 100 units/ml penicillin, and 0.1 mg/ml streptomycin (Sigma, St Louis, USA) (referred to as 5% AB-medium). Aliquots of the isolated PBMCs were frozen and were thawed later to stimulate the T cell lines. Additionally either fresh or thawed PBMCs were used as antigen presenting cells (APCs) in the proliferation assay as described later. In some cases the PBMCs were freezed at this stage and thawed later on to continue the experiment as described in the following. The isolated PBMCs (fresh or thawed) were CD8 depleted by MACS magnetic depletion according to the manufacturer's instructions (Miltenyi Biotec, Bergisch Gladbach, Germany). On day 0 the CD8-depleted PBMCs (2×10^6/ml) were stimulated in 1 ml bulk cultures in AB medium in 24 well plates (Nunc, Denmark) with the mixture of natural allergens: nPhl p 1 (0.5 μg/ml), mix of […]). […] On day 14 cells were harvested to obtain T cell line generation 01 (referred to as TCL01). Restimulation of T cell lines were performed in AB-medium with the thawed autologous PBMCs (10^6/well, irradiated 2500 Rad), the above mixture of natural allergens (concentration as mentioned above), and PHA-P (0.5 μg/ml, Difco, Detroit, Mich., USA). rIL-2 was added at day 17, 18 and 19. On day 24 cells were harvested to obtain T cell line generation 02 (referred as TCL02). T cells were isolated, washed, counted and used for T cell proliferation assay as described later. Remaining cells were frozen for later thawing and re-stimulations. The T cell line generation 2 (TCL02) were thawed and were re-stimulated with allogeneic Epstein Bar Virus transformed lymphoblastoid cell lines (EBV) B cells (JY cells, 10^5/well, irradiated 3500 Rad), allogeneic PBMCs (10^6/well, irradiated 2500 Rad), and 0.5 μg/ml PHA-P and subsequent addition of rIL-2 at days 3-5 to generate T cell line generation 03 (referred to as TCL03). […] To summarize ELISpot experiments were carried out at day 14 (with TCL01) and proliferation assay on either day 24 (with TCL02) or at day 34 (with TCL03). […] To ensure that all T cell epitopes regions from the major and intermediate grass allergens of the grass were identified T cell screening was carried out with either overlapping peptides or selected peptides. […] These were overlapping 20-mer peptides spanning the entire full length amino acid sequence of […] and selected high binder peptides from Phl p 4 were tested. Additionally 21, 15 mer peptides were tested which were derived from various group 1 and 5 allergens. Also, 67 peptides from homologous grass allergens were tested. Finally some reference peptides and mixes thereof were also tested. The 15-mer peptides were selected on the basis of predicted and measured promiscuous HLA binding and of sequence homology between known proteins sequences from the relevant pooideae grasses and the Bermuda grass. […] To get comprehensive data from all the donors the peptides were tested in both Fluorospot/Elispot (day 14, TCL01) and proliferation (day 24, TCL02).

## CC[C@H](C)[C@H](NC(=O)[C@H](C)NC(=O)[C@H](CCCCN)NC(=O)[C@@H](NC(=O)[C@H](CC(C)C)NC(=O)[C@H](C)NC(=O)[C@H](C)NC(=O)[C@H](CCC(=O)O)NC(=O)[C@H](Cc1ccccc1)NC(=O)[C@@H](NC(=O)[C@H](C)NC(=O)[C@H](Cc1ccc(O)cc1)NC(=O)[C@H](CCCCN)NC(=O)[C@@H](NC(=O)[C@H](CCC(=O)O)NC(=O)[C@@H]1CCCN1C(=O)[C@@H](N)CCCCN)C(C)C)C(C)C)[C@@H](C)O)C(=O)N[C@H](C(=O)O)[C@@H](C)O [compound 242]
  Proliferation % donor coverage (TCL-02 DK1): 48.28%
  Proliferation strength (TCL-02 DK1): 7.20

## CC[C@H](C)[C@H](NC(=O)[C@H](CCCCN)NC(=O)[C@H](CCC(=O)O)NC(=O)[C@@H](NC(=O)[C@H](CC(C)C)NC(=O)[C@H](CCCCN)NC(=O)[C@H](CCC(N)=O)NC(=O)[C@@H](N)CCC(=O)O)[C@@H](C)CC)C(=O)N[C@@H](CC(N)=O)C(=O)N[C@@H](C)C(=O)NCC(=O)N[C@@H](Cc1ccccc1)C(=O)N[C@@H](CCCCN)C(=O)N[C@@H](C)C(=O)N[C@@H](C)C(=O)N[C@H](C(=O)N[C@@H](C)C(=O)N[C@@H](C)C(=O)N[C@@H](C)C(=O)N[C@@H](C)C(=O)O)C(C)C [compound 341]
  donor coverage of homologue peptide compared with native Phleum peptide: better donor coverage than the native peptides

## CC[C@H](C)[C@H](NC(=O)[C@@H](NC(=O)[C@H](CCCNC(=N)N)NC(=O)[C@H](CC(C)C)NC(=O)[C@H](C)NC(=O)[C@H](CCC(=O)O)NC(=O)[C@@H](NC(=O)[C@H](CC(C)C)NC(=O)[C@@H](NC(=O)[C@H](C)NC(=O)[C@@H](NC(=O)[C@H](Cc1ccc(O)cc1)NC(=O)[C@H](C)NC(=O)[C@H](CC(=O)O)NC(=O)[C@H](Cc1ccc(O)cc1)NC(=O)[C@H](CCCCN)NC(=O)[C@H](C)NC(=O)[C@@H](N)CCC(=O)O)C(C)C)[C@@H](C)O)[C@@H](C)O)C(C)C)C(=O)N[C@@H](C)C(=O)NCC(=O)O [compound 345]
  donor coverage of homologue peptide compared with native Phleum peptide: comparable donor coverage

## CC(C)[C@H](NC(=O)[C@@H](NC(=O)[C@H](Cc1ccccc1)NC(=O)[C@H](CCCCN)NC(=O)[C@H](CC(=O)O)NC(=O)[C@H](CC(N)=O)NC(=O)[C@H](C)NC(=O)[C@@H]1CCCN1C(=O)[C@H](C)NC(=O)[C@H](C)NC(=O)[C@H](CC(N)=O)NC(=O)[C@H](C)NC(=O)[C@H](C)NC(=O)[C@@H](NC(=O)[C@H](C)NC(=O)[C@H](C)NC(=O)[C@@H](NC(=O)[C@@H](N)CCCNC(=N)N)[C@@H](C)O)[C@@H](C)O)[C@@H](C)O)C(=O)N[C@@H](Cc1ccccc1)C(=O)N[C@@H](CCC(=O)O)C(=O)O [compound 348]
  donor coverage of homologue peptide compared with native Phleum peptide: comparable donor coverage

## CC[C@H](C)[C@H](NC(=O)[C@H](Cc1ccccc1)NC(=O)[C@H](C)NC(=O)[C@H](CC(=O)O)NC(=O)[C@H](Cc1ccc(O)cc1)NC(=O)[C@H](CCCCN)NC(=O)[C@H](C)NC(=O)[C@@H](N)CCC(=O)O)C(=O)N[C@@H](C)C(=O)N[C@@H](C)C(=O)N[C@@H](CC(C)C)C(=O)N[C@H](C(=O)N[C@@H](CCC(=O)O)C(=O)N[C@@H](C)C(=O)N[C@@H](CC(C)C)C(=O)N[C@@H](CCCNC(=N)N)C(=O)N[C@H](C(=O)N[C@H](C(=O)N[C@@H](C)C(=O)NCC(=O)O)[C@@H](C)CC)C(C)C)[C@@H](C)O [compound 358]
  donor coverage of homologue peptide compared with native Phleum peptide: comparable donor coverage

## APEVKYAVFEAGLTKAITAM-OH [compound 365]
  donor coverage of homologue peptide compared with native Phleum peptide: loose some of the donor coverage

## ASRRPWWASVPPADKFKTFA-OH [compound 356]
  donor coverage of homologue peptide compared with native Phleum peptide: loose some of the donor coverage

## Ac-WGAIWRIDTPDKLTGPFTVR-NH2 [compound 259]
  T cell coverage of modified peptide compared to the parent peptide: markedly increased T cell coverage

## DKYKTFVETFGTATNKAFVE-OH [compound 343]
  donor coverage of homologue peptide compared with native Phleum peptide: better donor coverage than the native peptides

## FIPMKSSWGA-OH [compound 135]
  Proliferation % donor coverage (TCL-02 DK1): 13.79%
  Proliferation strength (TCL-02 DK1): 1.50

## GFKAAVAAAAVVPPADKYKT-OH [compound 342]
  donor coverage of homologue peptide compared with native Phleum peptide: better donor coverage than the native peptides

## GLGSRASYEIKSKEPVESSG-OH [compound 313]
  donor coverage of homologue peptide compared with native Phleum peptide: low in donor coverage

## GRGSGSSFEIKSTKPESSSG-OH [compound 301]
  donor coverage of homologue peptide compared with native Phleum peptide: comparable to the native peptides

## IDKVDAAYRTAATAANAAPA-OH [compound 347]
  donor coverage of homologue peptide compared with native Phleum peptide: comparable donor coverage

## IRLTSEGGAHLVQDDVIPAN-OH [compound 323]
  donor coverage of homologue peptide compared with native Phleum peptide: low in donor coverage

## KDKWIELKESWGAVWRIDTP-OH [compound 308]
  donor coverage of homologue peptide compared with native Phleum peptide: comparable to the native peptides

## KFIPTLVAAVKQAYAAKQ-OH [compound 138]
  Proliferation % donor coverage (TCL-02 DK1): 31.03%
  Proliferation strength (TCL-02 DK1): 4.20

## KFIPTLVAAVKQAYAAKQAT-OH [compound 351]
  donor coverage of homologue peptide compared with native Phleum peptide: loose some of the donor coverage

## KKPEVKYAVFEAALTKAIT-OH [compound 143]
  Proliferation % donor coverage (TCL-02 DK1): 48.28%
  Proliferation strength (TCL-02 DK1): 7.50
  average relative magnitude: around 8

## KSSWGAIWRIDPKKPLK-OH [compound 136]
  Proliferation % donor coverage (TCL-02 DK1): 17.24%
  Proliferation strength (TCL-02 DK1): 1.90

## KYDAYVATLTEALR-OH [compound 137]
  Proliferation % donor coverage (TCL-02 DK1): 27.59%
  Proliferation strength (TCL-02 DK1): 6.30

## LKKAVTAMSEAEK-OH [compound 139]
  Proliferation % donor coverage (TCL-02 DK1): 20.69%
  Proliferation strength (TCL-02 DK1): 2.80

## LVQDDVIPANWKPDTVYTSK-OH [compound 324]
  donor coverage of homologue peptide compared with native Phleum peptide: low in donor coverage

## PEVKYAVFEAALTKAIT-OH [compound 140]
  Proliferation % donor coverage (TCL-02 DK1): 55.17%
  Proliferation strength (TCL-02 DK1): 8.20
  average relative magnitude: around 8

## PTPRTPPLLPPPRARDKATL-OH [compound 355]
  donor coverage of homologue peptide compared with native Phleum peptide: better donor coverage than the native peptides

## SDEFIPMKSSWGAIWRIDPK-OH [compound 321]
  donor coverage of homologue peptide compared with native Phleum peptide: comparable to the native peptides

## SEFEDVIPEGWKADTSYSAK-OH [compound 311]
  donor coverage of homologue peptide compared with native Phleum peptide: low in donor coverage

## SGKAFGAMAKKGQED-OH [compound 134, SGKAFGAMAKKGQED]
  Proliferation % donor coverage (TCL-02 DK1): 27.59%
  Proliferation strength (TCL-02 DK1): 4.00

## SLGAAYDSYKFIPTLVAAVK-OH [compound 350]
  donor coverage of homologue peptide compared with native Phleum peptide: loose some of the donor coverage

## TAATPATPATPATPAAVPSG [compound 340]
  donor coverage of homologue peptide compared with native Phleum peptide: better donor coverage than the native peptides

## VRYTTEGGTKSEFEDVIPEG-OH [compound 310]
  donor coverage of homologue peptide compared with native Phleum peptide: low in donor coverage

## WGAIWRIDPKKPLKGPFSIR-OH [compound 322]
  donor coverage of homologue peptide compared with native Phleum peptide: not recognized by the T cell lines

## WGAIWRIDTPDKLTGPFTVR-NH2 [compound 258]
  T cell coverage of modified peptide compared to the parent peptide: markedly increased T cell coverage

## WGAVWRIDTPDKLTGPFTVR-OH [compound 309]
  donor coverage of homologue peptide compared with native Phleum peptide: low in donor coverage
